Active and inactive are the calls of the source. The calls are words filed in the database; no cut-off is given here.
Columns and labels:
Rattus norvegicus = assay: Hypouricemic activity in overnight-fasted Sprague-Dawley rat model of Potassium oxonate-induced acute hyperuricemia assessed as decrease in serum uric acid at 10 mg/kg, po administered after potassium oxonate treatment and measured up to 5 hrs relative to control; assay type: functional, organism-based
[1] = target: T1, Xanthine dehydrogenase/oxidase (Homo sapiens, UniProt P47989)
T1 sequence (P47989 whole entry): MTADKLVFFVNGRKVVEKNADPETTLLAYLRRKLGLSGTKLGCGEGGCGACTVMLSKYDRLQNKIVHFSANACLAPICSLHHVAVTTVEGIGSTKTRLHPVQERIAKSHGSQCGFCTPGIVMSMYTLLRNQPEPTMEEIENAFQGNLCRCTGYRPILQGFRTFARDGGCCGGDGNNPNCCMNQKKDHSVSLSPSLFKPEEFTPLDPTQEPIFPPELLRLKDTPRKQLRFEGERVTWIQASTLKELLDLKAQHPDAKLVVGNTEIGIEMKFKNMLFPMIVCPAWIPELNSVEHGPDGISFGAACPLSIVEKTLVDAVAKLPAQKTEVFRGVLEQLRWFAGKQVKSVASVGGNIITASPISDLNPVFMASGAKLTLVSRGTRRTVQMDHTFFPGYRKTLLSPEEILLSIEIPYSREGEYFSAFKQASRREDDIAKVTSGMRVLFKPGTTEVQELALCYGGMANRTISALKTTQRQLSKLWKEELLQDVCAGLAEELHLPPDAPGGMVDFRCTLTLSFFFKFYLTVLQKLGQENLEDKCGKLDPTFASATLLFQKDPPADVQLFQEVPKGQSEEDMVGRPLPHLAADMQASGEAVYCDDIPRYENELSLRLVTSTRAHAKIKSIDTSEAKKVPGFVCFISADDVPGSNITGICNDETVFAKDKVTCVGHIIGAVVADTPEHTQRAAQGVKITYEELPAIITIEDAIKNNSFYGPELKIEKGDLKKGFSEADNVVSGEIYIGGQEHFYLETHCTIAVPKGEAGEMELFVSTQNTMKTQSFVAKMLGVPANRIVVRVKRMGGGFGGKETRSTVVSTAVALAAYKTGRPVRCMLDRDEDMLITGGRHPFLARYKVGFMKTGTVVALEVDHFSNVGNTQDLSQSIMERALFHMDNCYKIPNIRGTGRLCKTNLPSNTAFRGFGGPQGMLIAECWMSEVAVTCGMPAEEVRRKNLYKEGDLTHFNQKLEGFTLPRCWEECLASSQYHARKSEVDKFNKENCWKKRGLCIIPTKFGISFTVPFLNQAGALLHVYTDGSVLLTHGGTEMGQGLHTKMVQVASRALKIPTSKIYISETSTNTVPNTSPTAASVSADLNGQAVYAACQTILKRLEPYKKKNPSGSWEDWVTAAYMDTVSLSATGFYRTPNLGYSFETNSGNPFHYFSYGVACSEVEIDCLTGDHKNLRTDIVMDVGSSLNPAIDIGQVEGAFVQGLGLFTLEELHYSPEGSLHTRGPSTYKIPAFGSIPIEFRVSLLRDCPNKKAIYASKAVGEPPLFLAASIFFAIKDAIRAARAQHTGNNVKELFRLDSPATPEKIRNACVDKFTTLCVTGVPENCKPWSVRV
Description: Inhibition of xanthine oxidase (unknown origin) using xanthine as substrate preincubated for 15 mins followed by substrate addition by UV spectrophotometric analysis

[2] = target: T1, Xanthine dehydrogenase/oxidase; assay: Mixed-type inhibition of xanthine oxidase (unknown origin) assessed as Inhibitor dissociation constant using xanthine as substrate incubated for 15 mins followed by substrate addition by UV spectrophotometric analysis; details: read-out: Kis

Row | IC50 [1] | Ki [2] | SMILES | Activity (Rattus norvegicus)
1 |  |  | CC(C)Oc1ccc(-c2ncc3c(=O)[nH][nH]c3n2)cc1C#N | Active
2 |  |  | CC(C)Oc1ccc(-c2nccc(C(=O)O)n2)cc1C#N | Active
3 | 0.028 µM | 0.0009 µM | Cc1nc(-c2ccc(OCC(C)C)c(C#N)c2)sc1C(=O)O [FEBUXOSTAT] | 
